Results from publication PMC4840262 (Mutagenesis, 2015).
Where a name gives a salt, the structure may show the parent alone. Read-outs that look alike come from different tables or passages of the source. Marks after values point to notes of the source that are not given here.

What was measured:
human lymphocytes [1] = test system: human lymphocytes
CHO-K1 cells [2] = settings: Chinese hamster
human lymphocytes [3] = test system: human lymphocytes; remark: listed apart in the source
CHO-K1 cells [4] = settings: cited from earlier work
rats = settings: cited from earlier work
mice [5] = settings: cited from earlier work
[6] = test system: C3H/10T1/2 Cl 8 mouse embryo fibroblasts; settings: cited from earlier work
Bacillus subtilis = settings: cited from earlier work
[7] = humans, 100mg once or twice a day for 3 days, original commercial oral GI formulation; cited from earlier work
in vitro = settings: male, human, Cytotoxicity (%)
[8] = test system: bone marrow polychromatic erythrocytes (PCE); settings: female, rat, in vivo; for % Micronucleated PCE / % PCE: Han Wistar [Crl:WI(Han)], po
[9] = female, Han Wistar [Cr1 WI(Han)], rat, in vivo, po, 400 mg/kg
mouse bone marrow = settings: in vivo, po; cited from earlier work
Drosophila melanogaster = settings: in vivo; cited from earlier work
Saccharomyces cerevisiae = settings: cited from earlier work
CHL cells = settings: cited from earlier work
bacteria (Ames test) = settings: cited from earlier work
[10] = Wistar rat, oral dose of 40mg/kg, microsuspension, after 4h; cited from earlier work
[11] = type: in vivo; settings: rat, plasma, po
mice [12] = settings: mouse, in vivo; cited from earlier work
[13] = human PK studies, high therapeutic doses; cited from earlier work

CCC[S+]([O-])c1ccc2[nH]c(NC(=O)OC)nc2c1 (stereo not drawn) [Albendazole sulfoxide, albendazole sulfoxide]
%C+ micronuclei (human lymphocytes [1]; male, human): 71%
%C− micronuclei (human lymphocytes [1]; male, human): 29%
BMD10 (CHO-K1 cells [2]): 1.100 µg/mL
BMDL10 (CHO-K1 cells [2]): 0.861 µg/mL
Lowest non-significant doses (micronuclei) (human lymphocytes [3]; male, human): 3.0 µg per ml
Td (threshold dose) (CHO-K1 cells [4]): 1.708 µg/mL
Td–L–CI (lower confidence Td) (CHO-K1 cells [4]): 1.474 µg/mL

CCCSc1ccc2nc(NC(=O)OC)[nH]c2c1 [Albendazole, albendazole]
%C+ micronuclei (human lymphocytes [1]; male, human): 72%
%C− micronuclei (human lymphocytes [1]; male, human): 28%
BMD10 (CHO-K1 cells [2]): 0.037 µg/mL
BMDL10 (CHO-K1 cells [2]): 0.027 µg/mL
Carcinogenicity (in words) (rats; lifetime studies in the rat): negative
Fold increases in MN over concurrent vehicle control (human lymphocytes [3]; male, human): 9.3
Lowest non-significant doses (micronuclei) (human lymphocytes [3]; male, human): 0.04 µg per ml
Td (threshold dose) (CHO-K1 cells [4]): 0.005 µg/mL
Td–L–CI (lower confidence Td) (CHO-K1 cells [4]): 0.003 µg/mL
Carcinogenicity (in words) (mice [5]; lifetime studies in the mouse): negative

CCCCNC(=O)n1c(NC(=O)OC)nc2ccccc21 [Benomyl, benomyl]
BMD10 (CHO-K1 cells [2]): 0.450 µg/mL
BMDL10 (CHO-K1 cells [2]): 0.348 µg/mL
Td (threshold dose) (CHO-K1 cells [4]): 0.659 µg/mL
Td–L–CI (lower confidence Td) (CHO-K1 cells [4]): 0.520 µg/mL

COC(=O)Nc1nc2ccccc2[nH]1 [Carbendazim, carbendazim]
BMD10 (CHO-K1 cells [2]): 0.310 µg/mL
BMDL10 (CHO-K1 cells [2]): 0.235 µg/mL
Td (threshold dose) (CHO-K1 cells [4]): 0.346 µg/mL
Td–L–CI (lower confidence Td) (CHO-K1 cells [4]): 0.268 µg/mL

O=P1(N(CCCl)CCCl)NCCCO1 (stereo not drawn) [Cyclophosphamide, cyclophosphamide]
% micronuclei with a centromere (human lymphocytes [1]; male, human): 16%
% micronuclei without a centromere (human lymphocytes [1]; male, human): 84%
Fold increases in MN over concurrent vehicle control (human lymphocytes [3]; male, human): 5.6
Mean MNBN cell frequency (%) (human lymphocytes [3]; male, human): 1.40* %

COC(=O)Nc1nc2cc(C(=O)c3ccc(F)cc3)ccc2[nH]1 [Flubendazole, flubendazole]
Morphological transformation (in words) [6]: morphological transformation
Mode of action of micronucleus induction (in words) (human lymphocytes [1]): acts as an aneugen
% micronuclei with a centromere (human lymphocytes [1]; 7.5 μg/ml): 80%
% micronuclei without a centromere (human lymphocytes [1]; 7.5 μg/ml): 20%
% micronuclei with a centromere (human lymphocytes [1]; 9.0 μg/ml): 88%
% micronuclei without a centromere (human lymphocytes [1]; 9.0 μg/ml): 12%
% micronuclei with a centromere (human lymphocytes [1]; 16 μg/ml): 83%
% micronuclei without a centromere (human lymphocytes [1]; 16 μg/ml): 17%
% micronuclei with a centromere (human lymphocytes [1]; 25 μg/ml): 86%
% micronuclei without a centromere (human lymphocytes [1]; 25 μg/ml): 14%
%C− micronuclei (human lymphocytes [1]; male, human): 30%
Induction of DNA repair (in words) (Bacillus subtilis): negative
Plasma Cmax [7]: < 0.001 µg/mL
cytotoxicity (in vitro; 0.050 µg/ml): 0%
cytotoxicity (in vitro; 0.075 µg/ml): 0%
cytotoxicity (in vitro; 0.100 µg/ml): 0%
cytotoxicity (in vitro; 0.250 µg/ml): 0%
cytotoxicity (in vitro; 0.5 µg/ml): 4%
cytotoxicity (in vitro; 0.500 µg/ml): 0%
cytotoxicity (in vitro; 1.0 µg/ml): 0%
cytotoxicity (in vitro; 1.00 µg/ml): 16%
cytotoxicity (in vitro; 2.0 µg/ml): 0%
cytotoxicity (in vitro; 3.0 µg/ml): 0%
cytotoxicity (in vitro; 6.0 µg/ml): 0%
cytotoxicity (in vitro; 6.5 µg/ml): 43%
cytotoxicity (in vitro; 7.5 µg/ml): 8%
cytotoxicity (in vitro; 9.0 µg/ml): 26%
cytotoxicity (in vitro; 10.0 µg/ml): 0%
cytotoxicity (in vitro; 12.0 µg/ml): 0%
cytotoxicity (in vitro; 14.0 µg/ml): 14%
cytotoxicity (in vitro; 16.0 µg/ml): 4%
cytotoxicity (in vitro; 19.0 µg/ml): 7%
cytotoxicity (in vitro; 25.0 µg/ml): 12%
BMD10 (CHO-K1 cells [2]): 0.019 µg/mL
BMDL10 (CHO-K1 cells [2]): 0.013 µg/mL
Carcinogenicity (in words) (rats; formulated diet, doses equivalent to a maximum of 20mg/kg in rats): Neither showed evidence of carcinogenicity
Revised RfD ([8]; Han Wistar [Cr1 WI(Han)]): 140.62 mg/subject/day
% Micronucleated PCE ([8]; 65 mg/kg): 1.35* %
% PCE ([8]; 65 mg/kg): 31.74%
% Micronucleated PCE ([8]; 130 mg/kg): 2.31* %
% PCE ([8]; 130 mg/kg): 33.00%
% Micronucleated PCE ([8]; 400 mg/kg): 1.94* %
Mean plasma concentration [9]: 0.61 µg/mL
Bone marrow micronucleus test result (in words) (mouse bone marrow): negative
Mean MNBN cell frequency (%) (human lymphocytes [3]; 0.050 µg/ml): 0.10%
Mean MNBN cell frequency (%) (human lymphocytes [3]; 0.075 µg/ml): 0.30%
Mean MNBN cell frequency (%) (human lymphocytes [3]; 0.100 µg/ml): 0.55%
Mean MNBN cell frequency (%) (human lymphocytes [3]; 0.250 µg/ml): 1.15* %
Mean MNBN cell frequency (%) (human lymphocytes [3]; 0.5 µg/ml): 1.75* %
Mean MNBN cell frequency (%) (human lymphocytes [3]; 0.500 µg/ml): 3.15* %
Mean MNBN cell frequency (%) (human lymphocytes [3]; 1.0 µg/ml): 3.38* %
Mean MNBN cell frequency (%) (human lymphocytes [3]; 1.00 µg/ml): 4.25* %
Mean MNBN cell frequency (%) (human lymphocytes [3]; 2.0 µg/ml): 0.05%
Mean MNBN cell frequency (%) (human lymphocytes [3]; 3.0 µg/ml): 5.15* %
Mean MNBN cell frequency (%) (human lymphocytes [3]; 6.0 µg/ml): 0.85* %
Mean MNBN cell frequency (%) (human lymphocytes [3]; 6.5 µg/ml): 10.10* %
Fold increases in MN over concurrent vehicle control (human lymphocytes [3]; 7.5 μg/ml): 7.2
Mean MNBN cell frequency (%) (human lymphocytes [3]; 7.5 μg/ml): 1.65* %
Fold increases in MN over concurrent vehicle control (human lymphocytes [3]; 9.0 μg/ml): 28.5
Mean MNBN cell frequency (%) (human lymphocytes [3]; 9.0 μg/ml): 6.55* %
Mean MNBN cell frequency (%) (human lymphocytes [3]; 10.0 µg/ml): 0.25%
Mean MNBN cell frequency (%) (human lymphocytes [3]; 12.0 µg/ml): 0.20%
Mean MNBN cell frequency (%) (human lymphocytes [3]; 14.0 µg/ml): 0.65* %
Fold increases in MN over concurrent vehicle control (human lymphocytes [3]; 16 μg/ml): 3.6
Mean MNBN cell frequency (%) (human lymphocytes [3]; 16.0 µg/ml): 0.90* %
Mean MNBN cell frequency (%) (human lymphocytes [3]; 19.0 µg/ml): 0.55* %
Fold increases in MN over concurrent vehicle control (human lymphocytes [3]; 25 μg/ml): 11.5
Mean MNBN cell frequency (%) (human lymphocytes [3]; 25.0 µg/ml): 2.88* %
Lowest dose where a statistically significant increase in micronuclei was observed (human lymphocytes [3]; male, human): 0.25 µg/mL
Lowest non-significant doses (micronuclei) (human lymphocytes [3]; male, human): 0.1 µg per ml
Lowest tested concentration, statistically significant increases in micronuclei evident (human lymphocytes [3]; male, human): 0.5 µg/mL
Mutation test result (in words) (Drosophila melanogaster): negative
Mutation test result (in words) (Saccharomyces cerevisiae): negative
Polyploidy (in words) (CHL cells): induce polyploidy
Td (threshold dose) (CHO-K1 cells [4]): 0.028 µg/mL
Td–L–CI (lower confidence Td) (CHO-K1 cells [4]): 0.025 µg/mL
Ames bacterial mutation test result (in words) (bacteria (Ames test)): negative
Plasma levels of flubendazole [10]: 0.081 µg/mL
Carcinogenicity (in words) (mice [5]; formulated diet, doses equivalent to a maximum of 30mg/kg in mice): Neither showed evidence of carcinogenicity
AUC(0-t) ([11]; 65 mg/kg): 15.1 µg·h/mL
Cmax ([11]; 65 mg/kg): 0.91 µg/mL
AUC(0-t) ([11]; 130 mg/kg): 16.5 µg·h/mL
Cmax ([11]; 130 mg/kg): 0.9 µg/mL
AUC(0-t) ([11]; 402 mg/kg): 24.9 µg·h/mL
Cmax ([11]; 402 mg/kg): 1.33 µg/mL
Induction of dominant lethal mutations (in words) (mice [12]): negative

COC(=O)Nc1nc2ccc(C(=O)c3ccccc3)cc2[nH]1 [Mebendazole, mebendazole]
BMD10 (CHO-K1 cells [2]): 0.024 µg/mL
BMDL10 (CHO-K1 cells [2]): 0.018 µg/mL
Oral bioavailability [13]: around 2%

CO[C@@]12[C@H](COC(N)=O)C3=C(C(=O)C(C)=C(N)C3=O)N1C[C@@H]1N[C@@H]12 [Mitomycin C, mitomycin C]
Mean MNBN cell frequency (%) (human lymphocytes [3]; male, human): 8.70* %

CCCOc1ccc2nc(NC(=O)OC)[nH]c2c1 [Oxibendazole, oxibendazole]
BMD10 (CHO-K1 cells [2]): 0.015 µg/mL
BMDL10 (CHO-K1 cells [2]): 0.010 µg/mL
Td (threshold dose) (CHO-K1 cells [4]): 0.032 µg/mL
Td–L–CI (lower confidence Td) (CHO-K1 cells [4]): 0.032 µg/mL

COC(=O)Nc1nc2ccc([C@H](O)c3ccc(F)cc3)cc2[nH]1 [R-reduced flubendazole]
Cytotoxicity (%) (human lymphocytes [3]): 3.0%
Lowest dose, significant increase in micronuclei seen (human lymphocytes [3]): 1.1 µg per ml

COC(=O)Nc1nc2ccc(C(O)c3ccc(F)cc3)cc2[nH]1 (stereo not drawn) [S-reduced flubendazole]
Cytotoxicity (%) (human lymphocytes [3]): 0.0%

CC[C@]1(O)C[C@@H]2CN(CCc3c([nH]c4ccccc34)[C@@](C(=O)OC)(c3cc4c(cc3OC)N(C)[C@H]3[C@@](O)(C(=O)OC)[C@H](OC(C)=O)[C@]5(CC)C=CCN6CC[C@]43[C@@H]65)C2)C1 [Vinblastine, vinblastine sulfate]
Fold increases in MN over concurrent vehicle control (human lymphocytes [3]; 0.12 μg/ml): 56.6
Frequency of micronucleated binucleate cells (%) (human lymphocytes [3]; male, human): 9.25* %

c1ccc2[nH]c(-c3cscn3)nc2c1 [thiabendazole]
MNBN induction in CHO-K1 cells (in words) (CHO-K1 cells [4]): inactive
